Article PMC8223498 (Journal of Fluorine Chemistry, 2021)

Tests used:
Assay type in all cases: biochemical
[1] = molecular target: T1, human N-terminally His6-tagged AspH315–758 (Homo sapiens, UniProt Q12797); test: SPE-MS inhibition assay, AspH (peptide hydroxylation); conditions: 0.05 μM His6-AspH315–758, 1.0 μM hFX-CP101–119 peptide, n = 2, mean ± SD
T1 sequence (Q12797 315-758): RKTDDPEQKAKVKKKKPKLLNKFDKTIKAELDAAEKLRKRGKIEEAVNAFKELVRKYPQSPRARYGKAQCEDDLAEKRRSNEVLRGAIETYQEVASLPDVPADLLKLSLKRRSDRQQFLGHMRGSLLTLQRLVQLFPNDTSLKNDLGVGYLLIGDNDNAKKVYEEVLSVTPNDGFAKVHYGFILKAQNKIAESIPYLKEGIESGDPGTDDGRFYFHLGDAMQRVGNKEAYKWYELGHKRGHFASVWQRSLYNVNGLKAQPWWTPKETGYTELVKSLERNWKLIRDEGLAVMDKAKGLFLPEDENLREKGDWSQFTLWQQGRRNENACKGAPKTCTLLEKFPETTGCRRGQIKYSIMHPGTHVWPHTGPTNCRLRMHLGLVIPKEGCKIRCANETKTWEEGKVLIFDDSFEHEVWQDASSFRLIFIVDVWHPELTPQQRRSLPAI
Protocol: (§1) KDM4E was used as a representative JmjC KDM; it catalyzes the demethylation of histone 3 (H3) N^ε-di- and trimethylated Lys9 (H3K9me3/me2), [11], [12].
(§2) 2OG oxygenases were produced and purified as described in the cited literature, the peptide substrate for AspH was synthesized according to the cited literature while the peptide substrates for FIH and KDM4E were obtained from GL Biochem (Shanghai) Ltd (Shanghai, China). All peptide were prepared with C-terminal amides.

[2] = molecular target: recombinant human N-terminally His6-tagged RIOX2_26–465 (Homo sapiens, UniProt Q8IUF8); test: SPE-MS inhibition assay, RIOX2 (peptide hydroxylation); conditions: n = 2, mean ± SD, inactive = no inhibition at 100 – 0.002 μM; for IC50: 0.15 μM His6-RIOX2_26–465, 5.0 μM RPL27A31–49 peptide; for IC50 RIOX2: […] His6-RIOX2_26–465, 5.0 μM RPL27A31–49 peptide
[3] = molecular target: T2, KDM4E (Homo sapiens, UniProt B2RXH2); test: SPE-MS inhibition assay, KDM4E (peptide demethylation); conditions: 10.0 μM H3_1–15K9me3, n = 2, mean ± SD, inactive = no inhibition at 100 – 0.002 μM
T2 sequence (B2RXH2 1-506): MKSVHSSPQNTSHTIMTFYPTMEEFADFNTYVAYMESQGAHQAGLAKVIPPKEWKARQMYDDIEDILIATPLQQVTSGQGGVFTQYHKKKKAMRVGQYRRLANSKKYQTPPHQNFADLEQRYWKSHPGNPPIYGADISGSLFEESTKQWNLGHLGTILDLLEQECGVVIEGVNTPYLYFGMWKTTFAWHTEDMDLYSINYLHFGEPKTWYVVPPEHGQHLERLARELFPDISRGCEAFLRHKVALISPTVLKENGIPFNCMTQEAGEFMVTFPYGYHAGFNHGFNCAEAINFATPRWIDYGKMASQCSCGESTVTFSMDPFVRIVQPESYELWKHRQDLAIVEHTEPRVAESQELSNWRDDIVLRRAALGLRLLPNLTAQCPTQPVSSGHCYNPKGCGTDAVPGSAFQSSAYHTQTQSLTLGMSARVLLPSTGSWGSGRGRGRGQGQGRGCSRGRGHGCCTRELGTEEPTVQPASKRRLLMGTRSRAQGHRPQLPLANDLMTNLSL
Protocol: as §1, §2

[4] = molecular target: T3, N-terminally His6-tagged FIH (Homo sapiens, UniProt Q9NWT6); test: SPE-MS inhibition assay, FIH (peptide hydroxylation); conditions: 5.0 μM HIF-1α CAD (788–822), n = 2, mean ± SD, inactive = no inhibition at 100 – 0.002 μM
T3 construct: His6 (N); made in house
Protocol: as §1, §2

Chain of recombinant human N-terminally His6-tagged RIOX2_26–465 (Q8IUF8 26-465): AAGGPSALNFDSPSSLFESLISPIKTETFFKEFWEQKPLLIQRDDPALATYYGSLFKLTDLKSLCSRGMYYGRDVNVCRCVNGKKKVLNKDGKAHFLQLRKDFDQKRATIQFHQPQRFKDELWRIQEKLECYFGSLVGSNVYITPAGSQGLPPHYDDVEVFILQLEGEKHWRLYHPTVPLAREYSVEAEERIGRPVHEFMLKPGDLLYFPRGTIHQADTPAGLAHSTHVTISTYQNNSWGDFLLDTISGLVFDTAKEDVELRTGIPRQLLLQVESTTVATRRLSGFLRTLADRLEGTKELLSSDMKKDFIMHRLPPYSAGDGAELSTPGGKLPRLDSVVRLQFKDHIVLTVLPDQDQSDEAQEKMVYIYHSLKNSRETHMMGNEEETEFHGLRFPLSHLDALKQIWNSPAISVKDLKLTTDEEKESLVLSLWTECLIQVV
T3 sequence (Q9NWT6 whole entry): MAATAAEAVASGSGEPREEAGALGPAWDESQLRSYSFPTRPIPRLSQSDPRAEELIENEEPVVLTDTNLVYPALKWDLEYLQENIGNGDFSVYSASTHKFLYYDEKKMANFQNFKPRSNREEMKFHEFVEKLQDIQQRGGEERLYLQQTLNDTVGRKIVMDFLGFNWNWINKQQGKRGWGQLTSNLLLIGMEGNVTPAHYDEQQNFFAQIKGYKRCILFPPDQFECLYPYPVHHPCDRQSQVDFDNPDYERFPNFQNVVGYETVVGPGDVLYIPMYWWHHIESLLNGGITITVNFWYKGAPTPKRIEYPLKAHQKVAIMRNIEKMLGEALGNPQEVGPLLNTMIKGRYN

SMILES | IC50 [1] [nM] | IC50 [2] [nM] | IC50 [3] [nM] | IC50 [4] [nM] | IC50 RIOX2 [2] | IC50 KDM4E [3] | IC50 FIH [4]
O=C(O)c1cc(C(=O)O)c(F)cn1 [compound 8, 5-Fluoropyridine-2,4-dicarboxylic acid] | 50 ± 10 | > 50000 | 1600 ± 300 | > 50000 |  |  | 
O=C(O)c1ccnc(C(=O)O)c1F [compound 7, 3-Fluoropyridine-2,4-dicarboxylic acid] | 110 ± 10 | > 50000 | 1300 ± 200 | > 50000 |  |  | 
O=C(O)c1ccnc(C(=O)O)c1 [2,4-PDCA, pyridine-2,4-dicarboxylate, reference compound] | ~30 |  |  |  |  |  | 
O=C(O)c1ccnc(C(=O)O)c1C(F)(F)F [compound 13, 3-Trifluoromethylpyridine-2,4-dicarboxylic acid] | > 50000 |  |  |  | ^d)inactive | ^d)inactive | ^d)inactive
O=C(O)c1cc(C(=O)O)c(C(F)(F)F)cn1 [compound 14, 5-Trifluoromethylpyridine-2,4-dicarboxylic acid] | 4200 ± 1000 |  |  |  | ^d)inactive | ^d)inactive | ^d)inactive
